# Data published in patent US10131652B2, “Pyrimidinyloxy benzene derivatives as herbicides” (E. I. DU PONT DE NEMOURS AND COMPANY, priority 2014, dated 2018).
# Like-named read-outs stand apart in the source and are kept apart here.
# What was measured:
# Assay type in all cases: in vivo
# [1] = test system: barnyardgrass (Echinochloa crus-galli); assay: Test C flooded paddy test plant response; conditions: Flood, 250 g ai/ha, scale of 0 to 100 where 0 is no effect and 100 is complete control, 13 to 15 days
# Outline: (§1)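 Two-leaf stage → flood to 3 cm → compound into water → hold depth, greenhouse 13–15 d → visual score vs controls (0 none, 100 complete control).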
# [2] = test system: rice (Oryza sativa); assay: Test C flooded paddy test plant response; conditions: Flood, 250 g ai/ha, scale of 0 to 100 where 0 is no effect and 100 is complete control, 13 to 15 days
# Outline: as §1
# [3] = test system: small-flower umbrella sedge (Cyperus difformis); assay: Test C flooded paddy test plant response; conditions: Flood, 250 g ai/ha, scale of 0 to 100 where 0 is no effect and 100 is complete control, 13 to 15 days
# Outline: as §1
# [4] = test system: ducksalad (Heteranthera limosa); assay: Test C flooded paddy test plant response; conditions: Flood, 250 g ai/ha, scale of 0 to 100 where 0 is no effect and 100 is complete control, 13 to 15 days
# Outline: as §1
# [5] = test system: barnyardgrass (Echinochloa crus-galli); assay: Test B pre-/postemergence plant response; conditions: for pest or weed control at 1000 g/ha: Echinochloa crus-galli, 240 h, 1000 g ai/ha, read-out: Plant response rating, Barnyardgrass
# Outline: (§2)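 Ratings reflect visual injury versus untreated controls, from 0 for no effect to 100 for complete control, assessed roughly 10 days after treatment. Formulation: non-phytotoxic solvent mix with surfactant; pre- and postemergence sprays on plants grown in loam soil and sand.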
# [6] = test system: pigweed (Amaranthus retroflexus); assay: Test B pre-/postemergence plant response; conditions: for pest or weed control at 1000 g/ha: Amaranthus retroflexus, 240 h, 1000 g ai/ha, read-out: Plant response rating, Pigweed
# Outline: as §2
# [7] = test system: velvetleaf (Abutilon theophrasti); assay: Test B pre-/postemergence plant response; conditions: for pest or weed control at 1000 g/ha: Abutilon theophrasti, 240 h, 1000 g ai/ha, read-out: Plant response rating, Velvetleaf
# Outline: as §2
# [8] = test system: wheat (Triticum aestivum); assay: Test B pre-/postemergence plant response; conditions: for plant injury at 1000 g/ha: Triticum aestivum, 240 h, 1000 g ai/ha, read-out: Plant response rating, Wheat
# Outline: as §2
# [9] = test system: giant foxtail (Setaria faberii); assay: Test B pre-/postemergence plant response; conditions: for pest or weed control at 1000 g/ha: Setaria faberi, 240 h, 1000 g ai/ha, read-out: Plant response rating, Foxtail, Giant
# Outline: as §2
# [10] = test system: large (Lg) crabgrass (Digitaria sanguinalis); assay: Test B pre-/postemergence plant response; conditions: for pest or weed control at 1000 g/ha: Digitaria sanguinalis, 240 h, 1000 g ai/ha, read-out: Plant response rating, Crabgrass, Large
# Outline: as §2
# [11] = test system: morningglory (Ipomoea spp.); assay: Test B pre-/postemergence plant response; conditions: for pest or weed control at 1000 g/ha: Ipomoea, 240 h, 1000 g ai/ha, read-out: Plant response rating, Morningglory
# Outline: as §2
# [12] = test system: corn (Zea mays); assay: Test B pre-/postemergence plant response; conditions: for Corn plant response rating (crop injury, 0 = no effect, 100 = complete kill) at 1000 g/ha: Zea mays, 240 h, 1000 g ai/ha
# Outline: as §2
# [13] = post-emergence, Postemergence, 0 to 100 scale (0 no effect, 100 complete control)
# [14] = pre-emergence, Preemergence, 0 to 100 scale (0 no effect, 100 complete control)
# [15] = 125 g ai/ha, postemergence, 0 to 100 scale, 0 no effect, 100 complete control
# [16] = Postemergence, 500 g ai/ha, 0 to 100 scale (0 no effect, 100 complete control)
# [17] = Preemergence, 125 g ai/ha, 0 to 100 scale where 0 is no effect and 100 is complete control
# [18] = Preemergence, 500 g ai/ha, 0 to 100 scale (0 no effect, 100 complete control)
structure (smiles),measurement,setting,value
"Clc1cnc(Oc2ccccc2-c2cc(Br)no2)nc1 [Compound 12, 2-[2-(3-bromo-5-isoxazolyl)phenoxy]-5-chloropyrimidine]",pest or weed control at 250 g/ha,"[1]; Echinochloa crus-galli, read-out: Barnyardgrass plant response rating",10%
same,plant injury at 250 g/ha,"[2]; Oryza sativa, read-out: Rice plant response rating",0%
same,pest or weed control at 250 g/ha,"[3]; Cyperus difformis, read-out: Sedge, Umbrella plant response rating",0%
same,pest or weed control at 250 g/ha,"[4]; Heteranthera limosa, read-out: Ducksalad plant response rating",40%
same,pest or weed control at 1000 g/ha,[5]; [13],40%
same,pest or weed control at 1000 g/ha,[5]; [14],20%
same,pest or weed control at 1000 g/ha,[6]; [13],100%
same,pest or weed control at 1000 g/ha,[6]; [14],90%
same,pest or weed control at 1000 g/ha,[7]; [13],90%
same,pest or weed control at 1000 g/ha,[7]; [14],70%
same,plant injury at 1000 g/ha,[8]; [13],10%
same,plant injury at 1000 g/ha,[8]; [14],0%
same,pest or weed control at 1000 g/ha,[9]; [13],40%
same,pest or weed control at 1000 g/ha,[9]; [14],90%
same,pest or weed control at 1000 g/ha,[10]; [13],30%
same,pest or weed control at 1000 g/ha,[10]; [14],80%
same,pest or weed control at 1000 g/ha,[11]; [13],30%
same,pest or weed control at 1000 g/ha,[11]; [14],0%
same,"Corn plant response rating (crop injury, 0 = no effect, 100 = complete kill) at 1000 g/ha",[12]; [13],0%
same,"Corn plant response rating (crop injury, 0 = no effect, 100 = complete kill) at 1000 g/ha",[12]; [14],0%
FC(F)(F)c1cnc(Oc2ccccc2-c2cncs2)nc1 [Compound 13],Barnyardgrass plant response rating,[1],0
same,Rice plant response rating,[2],0
same,"Sedge, Umbrella plant response rating",[3],0
same,Ducksalad plant response rating,[4],40
same,"Plant response rating, Barnyardgrass",[5]; [15],0
same,"Plant response rating, Barnyardgrass",[5]; [16],0
same,"Plant response rating, Barnyardgrass",[5]; [17],0
same,"Plant response rating, Barnyardgrass",[5]; [18],0
same,"Plant response rating, Pigweed",[6]; [15],0
same,"Plant response rating, Pigweed",[6]; [16],40
same,"Plant response rating, Pigweed",[6]; [17],0
same,"Plant response rating, Pigweed",[6]; [18],80
same,"Plant response rating, Velvetleaf",[7]; [15],30
same,"Plant response rating, Velvetleaf",[7]; [16],60
same,"Plant response rating, Velvetleaf",[7]; [17],0
same,"Plant response rating, Velvetleaf",[7]; [18],10
same,"Plant response rating, Wheat",[8]; [15],0
same,"Plant response rating, Wheat",[8]; [16],0
same,"Plant response rating, Wheat",[8]; [17],0
same,"Plant response rating, Wheat",[8]; [18],0
same,"Plant response rating, Foxtail, Giant",[9]; [15],0
same,"Plant response rating, Foxtail, Giant",[9]; [16],0
same,"Plant response rating, Foxtail, Giant",[9]; [17],0
same,"Plant response rating, Foxtail, Giant",[9]; [18],10
same,"Plant response rating, Crabgrass, Large",[10]; [15],0
same,"Plant response rating, Crabgrass, Large",[10]; [16],10
same,"Plant response rating, Crabgrass, Large",[10]; [17],0
same,"Plant response rating, Crabgrass, Large",[10]; [18],10
same,"Plant response rating, Morningglory",[11]; [15],0
same,"Plant response rating, Morningglory",[11]; [16],10
same,"Plant response rating, Morningglory",[11]; [17],0
same,"Plant response rating, Morningglory",[11]; [18],0
same,"Plant response rating, Corn",[12]; [15],0
same,"Plant response rating, Corn",[12]; [16],10
same,"Plant response rating, Corn",[12]; [17],0
same,"Plant response rating, Corn",[12]; [18],0
